Values of other authors in patent US20040220135A1 (priority 2003, published 2004).

Test system: liver metastases
Details: Gray et al (2001) Annals of Oncology 12: 1711-1720

For O=c1[nH]c(=O)n([C@H]2C[C@H](O)[C@@H](CO)O2)cc1F [floxuridine], the Response rate is given as 17.6% and the “Time to disease progression” value is given as 9.7 months.
